Assay results published in patent US20090234122A1, “CYANINE DYE AND OPTICAL RECORDING MEDIUM” (priority 2005, published 2009).

What was measured:
Format in all cases: physicochemical
[1] = Lightfastness of cyanine dye thin membranes under xenon lamp irradiation; conditions: thin membrane on glass, 180 W/m^2, 5.5 hours
Method: The solution was in conventional manner dropped to homogeneity over the surface of either side of a polished glass substrate, 5 cm×5 cm, followed by rotating the glass substrate at a rate of 1,000 rpm/min for one minute to homogeneously apply the solution over the substrate and then drying the substrate by blowing hot air or cold air in this order to form a thin membrane of any one of the cyanine dyes of the present invention.
The cyanine dyes were measured for transmittance (T0) at the wavelengths of their absorption maxima (about 450 nm), while a 7.5 W xenon lamp was fixed apart from the glass substrate at a prescribed intervals and irradiated therewith (irradiated energy of 180 W/m^2 when measured on the surface of the substrate) for 5.5 hours while blowing cold air to the substrate. Thereafter, the substrates were immediately measured for transmittance (T) at the wavelengths of absorption maxima of the cyanine dyes and the residual percentages (%) thereof were calculated by assigning the obtained transmittances T and T0 the equation 1. In parallel, similarly as in the above, thin membranes, as controls 1 to 4, formed with any one of the compounds represented by Chemical Formulae 33, 37, 40 and 41; thin membranes, as controls 5 to 8, formed with any one of the compounds represented by Chemical Formulae 33, 37, 40 and 41 in combination with the azo metal complex presented by Chemical Formula 34 as a light resistant improver; and thin membranes, as controls 9 to 10, formed with any one of the compounds represented by Chemical Formulae 42 and 43, and these thin membranes were similarly treated as in the above, and measured for transmittances T and T0 at wavelengths of their absorption maxima for use as controls.

[2] = Decomposition point on DSC analysis; conditions: onset temperature of exothermic peak induced by decomposition
Description: The decomposition points of organic dye compounds such as cyanine dyes can be determined on, for example, commonly used differential scanning calorimetric analysis (abbreviated as “DSC”, hereinafter).
The melting point means a peak top temperature of endothermic peak during temperature increase on DSC analysis, while the decomposition point means an onset temperature of exothermic peak induced by decomposition during temperature increase on DSC analysis. These are applicable to the following measurements.

[3] = Solubility in organic solvents at 20° C.; conditions: N,N-dimethylformamide, methanol, TFP, methylethylketone, acetonitrile, chloroform
[4] = transmittance at absorption maximum (about 450 nm), lightfastness improver: Non
[5] = in combination with lightfastness improver Chemical Formula 34 (azo metal complex)

Row | SMILES | Residual percentage (%) of dye [1, 4] [%] | decomposition point [2] | Residual percentage (%) of dye [1, 5] [%] | solubility in organic solvents [3]
1 | CN1C(=CC2=[N+](C)c3ccccc3C2(C)C)C(C)(C)c2ccccc21 [Chemical Formula 42] | 15.3 | – | – | –
2 | CN1C(=CC2=[N+](C)c3ccccc3C23CCCCC3)C2(CCCCC2)c2ccccc21 [Chemical Formula 40] | 35.6 | around 227 °C | 91.5 | –
3 | CN1C(=CC2=[N+](C)c3ccccc3C2(C)Cc2ccccc2)C(C)(C)c2ccccc21 (stereo not shown) [Chemical Formula 37] | 31.2 | around 238 °C | 90.3 | –
4 | CN1C(=CC2=[N+](C)c3ccccc3C23CCCCC3)C(C)(C)c2ccccc21 [Chemical Formula 41] | 33.8 | around 240 °C | 93.8 | –

The next lines start with results.

Row | Residual percentage (%) of dye [1, 4] [%] | decomposition point [2] | Residual percentage (%) of dye [1, 5] [%] | SMILES | solubility in organic solvents [3]
5 | 99.1 | ~273 °C | – | CN1C(=CC2=[N+](C)c3ccccc3C2(C)Cc2ccccc2)C(C)(C)c2ccccc21 (stereo not shown) [Chemical Formula 20] | satisfactory solubilities with no actual hindrance
6 | 29.4 | around 212 °C | 89.9 | CCN1C(=CC2=[N+](CC)c3ccccc3C2(C)Cc2ccccc2)C(C)(Cc2ccccc2)c2ccccc21 (stereo not shown) [Chemical Formula 33] | –
